Laboratory results taken from the NIST ThermoML archive (doi:10.1016/j.tca.2008.10.017).

Columns and labels:
[1] = Molar enthalpy of transition or fusion; conditions: DSC
[2] = for molar entropy: 101.33 kPa, Small (less than 1 g) adiabatic calorimetry; for Triple point temperature: DTA

CCCC[N+](CCCC)(CCCC)CCCC.[I-] [tetrabutylammonium iodide]
Conditions	Molar enthalpy of transition or fusion, [1] [kJ/mol]	Triple point temperature, [2] [K]
Crystal 1	9	423.2
Crystal 2	27.8	398.7

[2], Crystal 2
Conditions	molar entropy [J/K/mol]
5 K	0.292
10 K	2.32
20 K	14.45
30 K	33.35
40 K	55.15
50 K	77.88
60 K	100.5
70 K	123
80 K	145
90 K	166.3
100 K	187
110 K	207.1
120 K	226.7
130 K	245.6
140 K	264
150 K	282
160 K	299.4
170 K	316.5
180 K	333.2
190 K	349.6
200 K	365.7
210 K	381.6
220 K	397.2
230 K	412.6
240 K	427.9
250 K	443.1
260 K	458.1
270 K	473.1
273.15 K	477.8
280 K	488
290 K	502.9
298.15 K	515
300 K	517.7
310 K	532.6
320 K	547.4
330 K	562.3
340 K	577.3
350 K	592.4
